# Measured values: patent publication US11226337B2, “Chemoproteomic profiling of protein electrophilic and oxidative post-translational modifications” (Zenagem, LLC, priority 2017, dated 2022)
# Experiments:
# Test in all cases: SILAC RP-ABPP
# Type in all cases: cell-based
# [1] = molecular target: T1, NT5DC2 5nucleotidase domaincontaining (Q9H857) (Homo sapiens, UniProt Q9H857); conditions: SILAC H/L, HEK293T
# T1 construct: shared by both the endogenous and recombinant forms of these proteins; endogenous in cells; host or cells: HEK293T and MDA-MB-231
# T1 sequence (Q9H857 1-520): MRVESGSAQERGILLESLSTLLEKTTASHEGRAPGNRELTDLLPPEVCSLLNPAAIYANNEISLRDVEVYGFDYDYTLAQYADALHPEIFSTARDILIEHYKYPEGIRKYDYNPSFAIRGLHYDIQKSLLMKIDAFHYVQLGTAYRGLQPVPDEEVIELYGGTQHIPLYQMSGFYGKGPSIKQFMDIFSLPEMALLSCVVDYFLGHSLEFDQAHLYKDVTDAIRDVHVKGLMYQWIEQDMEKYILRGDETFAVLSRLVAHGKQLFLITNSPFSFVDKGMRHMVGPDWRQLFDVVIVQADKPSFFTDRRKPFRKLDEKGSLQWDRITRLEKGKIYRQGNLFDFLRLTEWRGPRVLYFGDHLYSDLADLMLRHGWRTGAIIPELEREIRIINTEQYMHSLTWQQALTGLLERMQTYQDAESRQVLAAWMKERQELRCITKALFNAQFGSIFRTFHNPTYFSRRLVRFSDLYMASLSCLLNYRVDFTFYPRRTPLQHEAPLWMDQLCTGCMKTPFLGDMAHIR
# Method: (§1) For MS-based experiments, labelling was performed in a similar manner as described above in Example 2, maintaining the same concentrations of probes. Modifications to this protocol included using isotopically ‘light’ and ‘heavy’ SILAC cells that were also grown to near complete confluence prior to treatment. Isotopically light cells were treated with the non-clickable hydrazine probe (at the same concentration as the probe in ‘enrichment’ experiments) or the probe in the presence of 10-fold excess non-clickable hydrazine probe as a competitor (in ‘competition’ experiments). Isotopically heavy cells were treated with the probe for both types of experiments. These treatments were performed in non-SILAC media. Following treatments, cells were washed with cold PBS to remove the probe-containing media, harvested by scraping, collected by centrifugation (1,400 g, 3 min, 4° C.), washed again by resuspension in cold PBS and frozen as pellets at −80° C. until use.
# (§2) The fractionated equimolar mixture of heavy and light soluble proteomes (1-1.5 mg) was diluted to 1 mL in PBS. Click reactions were scaled accordingly (except for biotin-azide) to maintain final concentrations of 0.1 mM TBTA, 1 mM CuSO4, 100 μM biotin-azide (10 mM in DMSO) and 1 mM TCEP. The mixture was vortexed and placed on a rotator at ambient temperature for 1 hour. Sequential addition of and mixture with pre-chilled methanol (MeOH, 2 mL), chloroform (CHCl3, 0.5 mL) and PBS (1 mL) on ice quenched the reaction. The precipitated proteome was centrifuged (5,000 g, 10 min, 4° C.) to fractionate the protein interphase from the organic and aqueous solvent layers. The protein pellet was washed with cold 1:1 MeOH:CHCl3 (3×1 mL), mildly sonicated in cold 4:1 MeOH:CHCl3 (2.5 mL) and pelleted once more by centrifugation (5,000 g, 10 min, 4° C.) to ensure click reagents were efficiently removed.
# (§3) Heavy and light parent ion chromatograms associated with successfully identified peptides were extracted and compared using CIMAGE software as previously described^69. At least one ion of a co-eluting heavy-light pair must be accurately identified from a fragmentation event that occurred within the retention time window (±10 min) of parent ion elution. To ensure that the correct pair of peaks is quantified, chromatograms are extracted within a 10 ppm error tolerance of the predicted m/z, the signal-to-noise ratio must be >2.5 and the ‘co-elution correlation score’ and ‘envelope correlation score’ must have R^2 values ≥0.8. In addition, peptides detected as ‘singletons,’ where only the heavy ion of a peptide pair was identified, but for which passed all other filtering parameters, are given a default assigned ratio of ‘20,’ which is defined as any measured ratio that is ≥20.
# (§4) To further eliminate false positives and any stochastic variability in the data, protein ratios were then determined by the median peptide ratio derived from three or more unique quantified peptides. Protein ratios that complied with these criteria from a single experiment were then averaged with ratios acquired from ≥3 replicates to provide final values for each type of experiment in both cell lines with both probes. […] Most importantly, there are no robustly measured ratios for proteins identified as probe 1 targets that had measured ratios of ˜1 with probe 2. Probe targets in HEK293T and MDA-MB-231 cells represent data combined from ≥3 independent biological replicates with each cell type performed with several independent batches of synthesized probes over a period of almost two years. […]
# [2] = molecular target: T2, PSAP Proactivator polypeptide (P07602) (Homo sapiens, UniProt P07602); conditions: SILAC H/L, MDA-MB-231
# T2 construct: In Situ Labelling of Cells with Hydrazine Probes for MS Experiments; endogenous in cells; host or cells: HEK293T and MDA-MB-231
# T2 sequence (P07602 60-524): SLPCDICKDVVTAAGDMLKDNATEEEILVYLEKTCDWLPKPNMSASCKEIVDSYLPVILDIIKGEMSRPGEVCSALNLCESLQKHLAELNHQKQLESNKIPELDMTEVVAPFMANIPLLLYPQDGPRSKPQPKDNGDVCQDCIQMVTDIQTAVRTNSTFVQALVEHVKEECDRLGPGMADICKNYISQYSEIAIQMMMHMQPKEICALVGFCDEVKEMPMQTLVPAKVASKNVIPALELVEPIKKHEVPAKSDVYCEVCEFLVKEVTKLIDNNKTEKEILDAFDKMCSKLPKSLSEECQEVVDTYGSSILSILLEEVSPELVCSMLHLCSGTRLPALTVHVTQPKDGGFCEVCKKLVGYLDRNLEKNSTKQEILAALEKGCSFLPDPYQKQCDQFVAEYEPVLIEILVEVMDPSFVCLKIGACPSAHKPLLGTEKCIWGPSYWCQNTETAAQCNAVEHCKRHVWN
# Method: as §1, §2, §3, §4
# [3] = molecular target: T3, ALDOA Fructosebisphosphate aldolase A (P04075) (Homo sapiens, UniProt P04075); conditions: SILAC H/L, HEK293T
# T3 construct: shared by both the endogenous and recombinant forms of these proteins; endogenous in cells; host or cells: HEK293T and MDA-MB-231
# T3 sequence (P04075 1-364): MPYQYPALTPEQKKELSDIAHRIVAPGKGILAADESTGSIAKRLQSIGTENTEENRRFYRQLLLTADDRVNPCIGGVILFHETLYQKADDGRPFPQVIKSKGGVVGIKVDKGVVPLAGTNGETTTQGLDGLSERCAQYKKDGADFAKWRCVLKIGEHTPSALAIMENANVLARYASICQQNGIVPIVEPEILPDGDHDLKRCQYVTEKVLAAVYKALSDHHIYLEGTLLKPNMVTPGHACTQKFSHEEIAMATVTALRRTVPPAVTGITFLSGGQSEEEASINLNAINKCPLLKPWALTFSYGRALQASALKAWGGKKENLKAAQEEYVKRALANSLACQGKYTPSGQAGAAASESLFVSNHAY
# Method: as §1, §2, §3, §4
enrichment ratioavg ([1]; probe 2 1 mM 0.5 h vs probe 4),competition ratioavg ([1]; probe 2 vs probe 2+10x probe 4),enrichment ratioavg ([2]; probe 2 1 mM 0.5 h vs probe 4),competition ratioavg ([2]; probe 2 vs probe 2+10x probe 4),enrichment ratioavg ([3]; probe 2 1 mM 0.5 h vs probe 4),competition ratioavg ([3]; probe 2 vs probe 2+10x probe 4),Structure (SMILES),enrichment ratioavg ([1]; probe 1 3 mM 0.5 h vs probe 3),competition ratioavg ([1]; probe 1 vs probe 1+10x probe 3),enrichment ratioavg ([2]; probe 1 3 mM 0.5 h vs probe 3),competition ratioavg ([2]; probe 1 vs probe 1+10x probe 3),enrichment ratioavg ([3]; probe 1 3 mM 0.5 h vs probe 3),competition ratioavg ([3]; probe 1 vs probe 1+10x probe 3)
–,–,–,–,–,–,"C#CCNN.Cl [probe 1, prop-2-yn-1-ylhydrazine hydrochloride]",11,3,12,3,16,3
16,4,5,5,12,5,"C#CCCNC(=O)c1ccc(NN)cc1.Cl [probe 2, N-(but-3-yn-1-yl)-4-hydrazinylbenzamide hydrochloride]",–,–,–,–,–,–
